Data on one substance can be found in patent US6440437B1, “Wet wipes having skin health benefits” (Kimberly-Clark Worldwide, Inc., priority 2000, dated 2002).

The test relates to EpiDerm™ skin model (Epi-200). In words: EpiDerm skin model: barrier against trypsin and IL-1α pro-inflammatory response. It counts as cell-based, human. The conditions noted are these: 15 microliters formulation 30 min before 10 microliters of 200 μg/ml trypsin; media assayed by ELISA after 6 hours.

Experimental: The EpiDerm™ skin model (Epi-200, Mattek Corporation, Ashland, Mass.) was used to assess the ability of the lipid-enriched wet wipe formulations to enhance skin barrier against permeation of trypsin (a skin irritating, fecal enzyme) and prevent a Interleukin-1α (IL-1α) response which is a measure of inflammation.
Test formulations (15 microliters) were added to the surface of the EpiDerm™ skin model and incubated for 30 minutes at 37° C., 5% CO2 prior to dosing with the fecal enzyme, trypsin. The study was conducted using Epi-200 assay media devoid of hydrocortisone and pH indicator that was prepared by the manufacturer. After 30 minutes, the underlying media was removed and replaced with fresh, pre-warmed media followed by application of 10 microliters of 200 μg/ml of trypsin. The skin wells were incubated for 6 hours before the underlying media was removed and stored for further analysis. […] Also, the amount of IL-1α in the media was measured using commercially available ELISA kits (Quantikine™ Human IL-1α Immunoassay, R&D Systems, Minneapolis, Minn.) specific for IL-1α to assess the ability of the formulations to prevent a pro-inflammatory response by the enzyme compared to the no treatment control.

On to trypsin, for which the “Irritation: Pro-inflammatory Response (IL-1α), Average IL-1α” value is 108.7.
